Measured values published in patent publication US12156880B2, “Heterocyclic RIP1 kinase inhibitors” (Rigel Pharmaceuticals, Inc., priority 2021, dated 2024).
Like-named read-outs stand apart in the source and are kept apart here.

What was measured:
U937 cells = assay: U937 cell necroptosis assay (TNFa + zVAD, CellTiter-Glo recovery); type: cell-based; details: Homo sapiens, U-937, 18 h, TNFa 2 ng/mL + zVAD-fmk, read-out: U937 Zvad TNF CTG Recovery, U937, TNFa + zVAD (IC50)
Summary of the method: (§1)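 Human U937 (50K/well, 60 uM zVAD-fmk medium, plated same day) or murine L929 (10K/well, plated 18 h, then 40 uM zVAD-fmk medium) were grown in RPMI with 10% FBS. Both were pretreated with compound for 1 h at 37 °C before TNFa at 2 ng/mL final. Viability was read by CellTiter-Glo luminescence after 18 h.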

RIPK1 = target: T1, RIPK1 (Homo sapiens, UniProt Q13546); assay: RIPK1 ADP-Glo biochemical kinase assay
T1 sequence (Q13546 1-671): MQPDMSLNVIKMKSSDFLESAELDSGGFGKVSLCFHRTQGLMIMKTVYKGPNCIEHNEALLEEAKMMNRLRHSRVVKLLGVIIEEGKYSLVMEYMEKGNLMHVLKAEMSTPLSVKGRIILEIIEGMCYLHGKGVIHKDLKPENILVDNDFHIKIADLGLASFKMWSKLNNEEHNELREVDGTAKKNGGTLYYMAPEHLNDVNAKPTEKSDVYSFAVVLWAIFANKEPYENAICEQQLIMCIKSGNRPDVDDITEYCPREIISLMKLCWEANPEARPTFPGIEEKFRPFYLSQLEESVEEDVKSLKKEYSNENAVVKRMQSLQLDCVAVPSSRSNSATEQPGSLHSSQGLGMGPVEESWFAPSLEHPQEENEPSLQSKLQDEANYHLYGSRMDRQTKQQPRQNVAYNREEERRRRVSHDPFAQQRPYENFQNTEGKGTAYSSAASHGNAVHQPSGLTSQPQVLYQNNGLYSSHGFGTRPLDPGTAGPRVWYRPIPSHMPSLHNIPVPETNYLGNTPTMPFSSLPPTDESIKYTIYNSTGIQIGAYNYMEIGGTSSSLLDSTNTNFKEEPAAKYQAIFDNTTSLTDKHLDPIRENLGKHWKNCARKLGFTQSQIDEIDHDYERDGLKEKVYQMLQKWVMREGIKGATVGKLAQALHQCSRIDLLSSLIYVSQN
Summary of the method: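 RIPK1 at 31 ng/well in Tris pH 7.4 buffer with MgCl2, BSA, DTT and MnCl2, reacted with compounds (duplicate) for 30 min at 30 °C. ADP formed detected by ADP-Glo: 40 min stop/depletion, then 30 min detection reagent at room temperature; luminescence read.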

L929 cells = assay: L929 cell necroptosis assay (TNFa + zVAD, CellTiter-Glo recovery); type: cell-based, murine; details: Mus musculus, L929, 18 h, TNFa 2 ng/mL + zVAD-fmk, read-out: L929-CTG-recovery, L929, TNFa + zVAD (IC50)
Summary of the method: as §1

[1] = read-out: RIPK1 ADP-Glo Kinase (IC50)

SMILES | IC50 (U937 cells) [nM] | IC50 (RIPK1; [1]) [nM] | IC50 (L929 cells) [nM] | IC50 (RIPK1) [nM]
Cc1cccc(Cc2cnn(C(=O)N[C@H]3COc4ccc(C#CC5(O)COC5)cc4N(C)C3=O)c2)n1 [I-103, (S)—N-(7-((3-Hydroxyoxetan-3-yl)ethynyl)-5-methyl-4-oxo-2,3,4,5-tetrahydrobenzo[b][1,4]oxazepin-3-yl)-4-((6-methylpyridin-2-yl)methyl)-1H-pyrazole-1-carboxamide] | 105 | 15.4 | 1290 | –
CN1C(=O)[C@@H](NC(=O)n2cc(Cc3cccc(F)n3)cn2)COc2ccc(C#CC(C)(C)C)cc21 [I-106, (S)—N-(7-(3,3-Dimethylbut-1-yn-1-yl)-5-methyl-4-oxo-2,3,4,5-tetrahydrobenzo[b][1,4]oxazepin-3-yl)-4-((6-fluoropyridin-2-yl)methyl)-1H-pyrazole-1-carboxamide] | 4.3 | 22.4 | 750 | –
CN1C(=O)[C@@H](NC(=O)n2cc(Cc3cccc(F)n3)cn2)COc2ccc(C#CC(C)(C)C3CCOCC3)cc21 [I-107, (S)-4-((6-Fluoropyridin-2-yl)methyl)-N-(5-methyl-7-(3-methyl-3-(tetrahydro-2H-pyran-4-yl)but-1-yn-1-yl)-4-oxo-2,3,4,5-tetrahydrobenzo[b][1,4]oxazepin-3-yl)-1H-pyrazole-1-carboxamide] | 2 | 53.8 | 307 | –
CN1C(=O)[C@@H](NC(=O)n2cc(Cc3cccc(F)n3)cn2)COc2ccc(C#CC3COC3)cc21 [I-108, (S)-4-((6-Fluoropyridin-2-yl)methyl)-N-(5-methyl-7-(oxetan-3-ylethynyl)-4-oxo-2,3,4,5-tetrahydrobenzo[b][1,4]oxazepin-3-yl)-1H-pyrazole-1-carboxamide] | 12.8 | 88 | 2090 | –
Cc1cccc(Cc2cnn(C(=O)N[C@H]3COc4ccc(C#CC5COC5)cc4N(C)C3=O)c2)n1 [I-109, (S)—N-(5-Methyl-7-(oxetan-3-ylethynyl)-4-oxo-2,3,4,5-tetrahydrobenzo[b][1,4]oxazepin-3-yl)-4-((6-methylpyridin-2-yl)methyl)-1H-pyrazole-1-carboxamide] | 188 | 26.3 | 3510 | –
CN1C(=O)[C@@H](NC(=O)n2cc(Cc3cccc(F)n3)cn2)CCc2ccc(C#CC3(O)COC3)cc21 [I-113, (S)-4-((6-Fluoropyridin-2-yl)methyl)-N-(8-((3-hydroxyoxetan-3-yl)ethynyl)-1-methyl-2-oxo-2,3,4,5-tetrahydro-1H-benzo[b]azepin-3-yl)-1H-pyrazole-1-carboxamide] | 1.3 | 11.8 | 37 | –
CN1C(=O)[C@@H](NC(=O)n2cc(Cc3cccc(F)n3)cn2)CCc2ccc(C#CC(C)(C)O)cc21 [I-114, (S)-4-((6-Fluoropyridin-2-yl)methyl)-N-(8-(3-hydroxy-3-methylbut-1-yn-1-yl)-1-methyl-2-oxo-2,3,4,5-tetrahydro-1H-benzo[b]azepin-3-yl)-1H-pyrazole-1-carboxamide] | 1 | 19.4 | 51.2 | –
CN1C(=O)[C@@H](NC(=O)n2cc(Cc3cccc(F)n3)cn2)CCc2ccc(C#CC(C)(C)CO)cc21 [I-115, (S)-4-((6-fluoropyridin-2-yl)methyl)-N-(8-(4-hydroxy-3,3-dimethylbut-1-yn-1-yl)-1-methyl-2-oxo-2,3,4,5-tetrahydro-1H-benzo[b]azepin-3-yl)-1H-pyrazole-1-carboxamide] | 0.5 | 28.3 | 38.5 | –
CN1C(=O)[C@@H](NC(=O)n2cc(Cc3cccc(F)n3)cn2)CCc2ccc(C#CC3(O)CCOCC3)cc21 [I-116, (S)-4-((6-Fluoropyridin-2-yl)methyl)-N-(8-((4-hydroxytetrahydro-2H-pyran-4-yl)ethynyl)-1-methyl-2-oxo-2,3,4,5-tetrahydro-1H-benzo[b]azepin-3-yl)-1H-pyrazole-1-carboxamide] | 0.5 | 12.9 | 69.4 | –
CN1C(=O)[C@@H](NC(=O)n2cc(Cc3cccc(F)n3)cn2)CCc2ccc(C#CC3(O)CCC3)cc21 [I-117, (S)-4-((6-Fluoropyridin-2-yl)methyl)-N-(8-((1-hydroxycyclobutyl)ethynyl)-1-methyl-2-oxo-2,3,4,5-tetrahydro-1H-benzo[b]azepin-3-yl)-1H-pyrazole-1-carboxamide] | 1.2 | – | 13.1 | 12.3
Cc1cccc(Cc2cnn(C(=O)N[C@H]3CCc4ccc(Br)cc4N(C)C3=O)c2)n1 [I-118, (S)—N-(8-Bromo-1-methyl-2-oxo-2,3,4,5-tetrahydro-1H-benzo[b]azepin-3-yl)-4-((6-methylpyridin-2-yl)methyl)-1H-pyrazole-1-carboxamide] | 256 | 38.4 | 7670 | –
Cc1cccc(Cc2cnn(C(=O)N[C@H]3CCc4ccc(C#CC(C)(C)O)cc4N(C)C3=O)c2)n1 [I-119, (S)—N-(8-(3-Hydroxy-3-methylbut-1-yn-1-yl)-1-methyl-2-oxo-2,3,4,5-tetrahydro-1H-benzo[b]azepin-3-yl)-4-((6-methylpyridin-2-yl)methyl)-1H-pyrazole-1-carboxamide] | 16.6 | 17.1 | 407 | –
CN1C(=O)[C@@H](NC(=O)n2cc(Cc3cccc(F)n3)cn2)CCc2c(F)cc(C#CC(C)(C)O)cc21 [I-121, (S)—N-(6-Fluoro-8-(3-hydroxy-3-methylbut-1-yn-1-yl)-1-methyl-2-oxo-2,3,4,5-tetrahydro-1H-benzo[b]azepin-3-yl)-4-((6-fluoropyridin-2-yl)methyl)-1H-pyrazole-1-carboxamide] | 174 | 26.1 | 11000 | –
CN1C(=O)[C@@H](NC(=O)n2cc(Cc3cccc(F)n3)cn2)CCc2c(F)cc(C#CC(C)(C)CO)cc21 [I-122, (S)—N-(6-Fluoro-8-(4-hydroxy-3,3-dimethylbut-1-yn-1-yl)-1-methyl-2-oxo-2,3,4,5-tetrahydro-1H-benzo[b]azepin-3-yl)-4-((6-fluoropyridin-2-yl)methyl)-1H-pyrazole-1-carboxamide] | 97.4 | 32.5 | 8670 | –
CN1C(=O)[C@@H](NC(=O)c2cc(Cc3csc(C(F)(F)F)n3)ccn2)COc2ccc(C#CC(C)(C)O)cc21 [I-123, (S)—N-(7-(3-hydroxy-3-methylbut-1-yn-1-yl)-5-methyl-4-oxo-2,3,4,5-tetrahydrobenzo[b][1,4]oxazepin-3-yl)-4-((2-(trifluoromethyl)thiazol-4-yl)methyl)picolinamide] | 97.8 | 20 | 853 | –
CN1C(=O)[C@@H](NC(=O)c2cc(Cc3csc(C(F)(F)F)n3)ccn2)COc2ccc(C#CC3(O)COC3)cc21 [I-124, (S)—N-(7-((3-hydroxyoxetan-3-yl)ethynyl)-5-methyl-4-oxo-2,3,4,5-tetrahydrobenzo[b][1,4]oxazepin-3-yl)-4-((2-(trifluoromethyl)thiazol-4-yl)methyl)picolinamide] | 113 | 30.4 | 1590 | –
CN1C(=O)[C@@H](NC(=O)c2cc(Oc3cccnc3F)ccn2)COc2ccc(C#CC3CCOCC3)cc21 [I-125, (S)-4-((2-fluoropyridin-3-yl)oxy)-N-(5-methyl-4-oxo-7-((tetrahydro-2H-pyran-4-yl)ethynyl)-2,3,4,5-tetrahydrobenzo[b][1,4]oxazepin-3-yl)picolinamide] | 0.9 | 23.4 | 11.5 | –
CN1C(=O)[C@@H](NC(=O)c2cc(Oc3cnn(C)c3)ccn2)COc2ccc(C#CC(C)(C)O)cc21 [I-126, (S)—N-(7-(3-hydroxy-3-methylbut-1-yn-1-yl)-5-methyl-4-oxo-2,3,4,5-tetrahydrobenzo[b][1,4]oxazepin-3-yl)-4-((1-methyl-1H-pyrazol-4-yl)oxy)picolinamide] | 8.9 | 15.3 | 155 | –
CN1C(=O)[C@@H](NC(=O)c2cc(Oc3cnn(C)c3)ccn2)COc2ccc(C#CC3(O)COC3)cc21 [I-127, (S)—N-(7-((3-hydroxyoxetan-3-yl)ethynyl)-5-methyl-4-oxo-2,3,4,5-tetrahydrobenzo[b][1,4]oxazepin-3-yl)-4-((1-methyl-1H-pyrazol-4-yl)oxy)picolinamide] | 6.7 | 15 | 198 | –
